Source: patent publication US20200353027A1, “A LILAC GINKGO BRICK TEA WITH LIPID LOWERING AND LIVER PROTECTION ACTIVITIES AND A METHOD OF PREPARING THE SAME” (SHAANXI UNIVERSITY OF SCIENCE AND TECHNOLOGY, priority 2019, published 2020)

System: mice given ethanol alcohol (alcohol's damage to the liver)
Assay: Liver protection in mice given ethanol alcohol
Format: in vivo, Kunming mice
Conditions: Tiopronin 50 mg/kg/day, ethanol 3 g/kg/day, after 25 days, blood
Description: To study the liver protection effect of the Lilac Ginkgo Brick Tea of Example 1, the following experiments were conduct.
Male Kunming mice, 50 SPF grades, 5 weeks old, 30-35 g, were randomly divided into Blank Group, Control Group, Tiopronin Positive Control Group, Low Dosage Group, and High Dosage Group. 100 g of Lilac Ginkgo Brick Tea was boiled in 1 L water, filtered, and concentrated to 50 mL concentrated Lilac Ginkgo Brick Tea solution. Blank Group and Control Group were given water and regular food; Tiopronin Group was given 50 mg/kg/day Tiopronin; and Low Dosage Group and High Dosage Group were given 20 mL/kg/day and 50 mL/kg/day concentrated Lilac Ginkgo Brick Tea solution, respectively, and regular food. Control Group, Tiopronin Positive Control Group, Low Dosage Group, and High Dosage Group were given 3 g/kg/day (0.01 mL/g) ethanol alcohol. Blank Group was given equal volume water. After 25 days, the mice were fasted for 2 hours, and blood samples were taken to determine alanine aminotransferase (ALT), aspartate aminotransferase (AST), and triglyceride (TG) levels.

## CC(S)C(=O)NCC(=O)O (stereo not drawn) [Tiopronin]
  ALT (alanine aminotransferase): 64.80 ± 10.47 U/L
  AST (aspartate aminotransferase): 140.39 ± 20.92 U/L
  TG (triglyceride): 1.295 ± 0.43 mmol/L
